Reference: US8580762B2, “Substituted purine and 7-deazapurine compounds” (Epizyme, Inc., priority 2010, dated 2013)

What follows are compounds tested against DOT1L(1-416) (Homo sapiens, UniProt Q8TEK3) (assay: Determination of IC50: DOT1L(1-416) methyltransferase assay, 3H-SAM, oligonucleosome substrate, Flashplate). Conditions: DOT1L IC50, class symbols.
DOT1L(1-416), sequence (Q8TEK3 1-416): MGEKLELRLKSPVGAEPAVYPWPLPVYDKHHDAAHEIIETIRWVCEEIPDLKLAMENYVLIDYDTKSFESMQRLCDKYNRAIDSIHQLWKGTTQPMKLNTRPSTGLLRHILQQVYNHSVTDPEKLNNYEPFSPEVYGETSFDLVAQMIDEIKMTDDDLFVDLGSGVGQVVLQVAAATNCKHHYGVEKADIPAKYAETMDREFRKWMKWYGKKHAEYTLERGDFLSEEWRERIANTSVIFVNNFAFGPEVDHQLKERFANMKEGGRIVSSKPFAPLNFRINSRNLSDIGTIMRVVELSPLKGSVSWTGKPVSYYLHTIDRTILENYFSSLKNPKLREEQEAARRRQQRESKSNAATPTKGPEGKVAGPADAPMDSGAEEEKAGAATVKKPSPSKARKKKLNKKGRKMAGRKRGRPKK
Assay type: biochemical
Summary of the method: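 Compounds in 10-point 3-fold DMSO dilutions were tested in reactions started with substrate mix of 200 nM [3H]-SAM, 600 nM unlabeled SAM and 20 nM oligonucleosome. Reactions ran 120 min at room temperature and were quenched with 100 μM SAM. Labeled substrate was captured on streptavidin Flashplates and counted by scintillation to give IC50.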
`CC(C)[N+]([O-])(C[C@H]1O[C@@H](n2cnc3c(N)ncnc32)[C@H](O)[C@@H]1O)[C@H]1C[C@@H](CCc2nc3cc(C(C)(C)C)ccc3[nH]2)C1` (stereo partly drawn) [Compound 106, (1r,3S)-N-(((2R,3S,4R,5R)-5-(6-amino-9H-purin-9-yl)-3,4-dihydroxy-tetrahydrofuran-2-yl)methyl)-3-(2-(5-(tert-butyl)-1H-benzo[d]imidazol-2-yl)ethyl)-N-isopropyl-cyclobutanamine oxide] was tested, and the IC50 was less than 100 nM.

Same assay, conditions: class symbols; read-out: DOT1L IC50
Compound `CC(C)N(C[C@H]1O[C@@H](n2cnc3c(N)ncnc32)[C@H](O)[C@@H]1O)[C@H]1C[C@@H](CCc2nc3cc(C4(C)CCC4)ccc3[nH]2)C1` [Compound 28, (2R,3R,4S,5R)-2-(6-amino-9H-purin-9-yl)-5-((isopropyl((1r,3S)-3-(2-(5-(1-methylcyclobutyl)-1H-benzo[d]imidazol-2-yl)ethyl)cyclobutyl)amino)methyl)tetrahydrofuran-3,4-diol] has an IC50 of less than 100 nM. Work on `CN(C[C@H]1C[C@@H](n2ccc3c(N)ncnc32)[C@H](O)[C@@H]1O)[C@H]1C[C@@H](CCc2nc3cc(C4(C)CCC4)ccc3[nH]2)C1` [Compound 36, (1R,2S,3R,5R)-3-(4-amino-7H-pyrrolo[2,3-d]pyrimidin-7-yl)-5-((methyl((1r,3S)-3-(2-(5-(1-methylcyclobutyl)-1H-benzo[d]imidazol-2-yl)ethyl)cyclobutyl)amino)methyl)cyclopentane-1,2-diol] yielded an IC50 of less than 100 nM. `CC(C)N(C[C@H]1O[C@@H](n2cnc3c(N)ncnc32)[C@H](O)[C@@H]1O)C1CC(CCc2nc3cc(C4(C#N)CCC4)ccc3[nH]2)C1` (stereo partly drawn) [Compound 117, 1-(2-(2-(3-((((2R,3S,4R,5R)-5-(6-amino-9H-purin-9-yl)-3,4-dihydroxytetrahydro-furan-2-yl)methyl)(isopropyl)amino)cyclobutyl)ethyl)-1H-benzo[d]imidazol-5-yl)cyclo-butanecarbonitrile] showed an IC50 of less than 100 nM. `CN(C[C@@H]1C[C@@H](O)[C@H](n2ccc3c(N)ncnc32)C1)C1CC(CCc2nc3cc(Cl)c(C(F)(F)F)cc3[nH]2)C1` (stereo partly drawn) [Compound 17, (1R,2R,4S)-2-(4-amino-7H-pyrrolo[2,3-d]pyrimidin-7-yl)-4-(((3-(2-(5-chloro-6-(trifluoromethyl)-1H-benzo[d]imidazol-2-yl)ethyl)cyclobutyl) (methyl)amino)methyl) cyclopentanol] was tested, and the IC50 was 100 to 1000 nM. Compound `CC(C)CN(C[C@H]1C[C@@H](n2ccc3c(N)ncnc32)[C@H](O)[C@@H]1O)[C@H]1C[C@H](CCc2nc3cc(C(C)(C)C)ccc3[nH]2)C1` [Compound 48, (1R,2S,3R,5R)-3-(4-amino-7H-pyrrolo[2,3-d]pyrimidin-7-yl)-5-((((1s,3R)-3-(2-(5-(tert-butyl)-1H-benzo[d]imidazol-2-yl)ethyl)cyclobutyl)(isobutyl)amino)methyl)cyclopentane-1,2-diol] has an IC50 of less than 100 nM. `CC(C)N(C[C@H]1O[C@@H](n2cnc3c(N)ncnc32)[C@H](O)[C@@H]1O)C1CC(CCc2nc3cc(C4(C)CCC4)ccc3[nH]2)C1` (stereo partly drawn) [Compound 27, (2R,3R,4S,5R)-2-(6-amino-9H-purin-9-yl)-5-((isopropyl(3-(2-(5-(1-methylcyclobutyl)-1H-benzo[d]imidazol-2-yl)ethyl)cyclobutyl)amino)methyl)tetrahydrofuran-3,4-diol] showed an IC50 of less than 100 nM. For `CCN(C[C@H]1O[C@@H](n2ccc3c(N)ncnc32)[C@H](O)[C@@H]1O)[C@H]1C[C@H](CCc2nc3cc(C(C)(C)C)ccc3[nH]2)C1` [Compound 88, (2R,3R,4S,5R)-2-(4-amino-7H-pyrrolo[2,3-d]pyrimidin-7-yl)-5-((((1s,3R)-3-(2-(5-(tert-butyl)-1H-benzo[d]imidazol-2-yl)ethyl)cyclobutyl) (ethyl)amino)methyl) tetrahydrofuran-3,4-diol], the IC50 was less than 100 nM.
